Reference: PubChem BioAssay AID248 (DTP/NCI, 2004)
Values joined by “and” are separate entries in the source; they are usually repeats but may differ in a detail not shown here. Identical values can stand only once. Toxic doses and inconclusive results are not listed. No stated cut-off is given here; in the data, active means T/C of 150% or more; inactive means T/C below 125%. Peptide text beside a SMILES is read from it. * marks the point of attachment. Bn = c1ccc(C*)cc1

Tested on: L1210 leukemia ip in BDF1 mice, survival T/C
Assay: NCI In Vivo Anticancer Drug Screen. Data for tumor model L1210 Leukemia (intraperitoneal) in B6D2F1 (BDF1) mice
Settings: endpoint: mean survival time, higher = longer survival
How it was run: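 Survival endpoint. Drug-treated group vs vehicle group, expressed as T divided by C. Tumor passaged by transplantation.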

[1] = dose: 100.0 mg/kg/injection, schedule: Q01DX001 (ip), vehicle: carboxymethylcellulose (CMC)
[2] = dose: 200.0 mg/kg/injection, schedule: Q01DX001 (ip), vehicle: carboxymethylcellulose (CMC)
[3] = dose: 25.0 mg/kg/injection, schedule: Q01DX009 (ip), vehicle: saline with Tween-80
[4] = dose: 50.0 mg/kg/injection, schedule: Q01DX009 (ip), vehicle: saline with Tween-80
[5] = dose: 50.0 mg/kg/injection, schedule: Q04DX003 (ip), vehicle: saline with Tween-80
[6] = dose: 100.0 mg/kg/injection, schedule: Q04DX003 (ip), vehicle: saline with Tween-80
[7] = dose: 200.0 mg/kg/injection, schedule: Q01DX009 (ip), vehicle: saline with Tween-80
[8] = dose: 200.0 mg/kg/injection, schedule: Q04DX003 (ip), vehicle: saline with Tween-80
[9] = dose: 400.0 mg/kg/injection, schedule: Q01DX009 (ip), vehicle: saline with Tween-80
[10] = dose: 400.0 mg/kg/injection, schedule: Q04DX003 (ip), vehicle: saline with Tween-80
[11] = dose: 100.0 mg/kg/injection, schedule: Q04DX002 (ip), vehicle: Klucel (hydroxypropylcellulose) (HPC)
[12] = dose: 100.0 mg/kg/injection, schedule: Q04DX003 (ip), vehicle: Klucel (hydroxypropylcellulose) (HPC)
[13] = dose: 200.0 mg/kg/injection, schedule: Q04DX003 (ip), vehicle: Klucel (hydroxypropylcellulose) (HPC)
[14] = dose: 400.0 mg/kg/injection, schedule: Q04DX003 (ip), vehicle: Klucel (hydroxypropylcellulose) (HPC)
[15] = dose: 100.0 mg/kg/injection, schedule: Q01DX009 (ip), vehicle: saline with Tween-80
[16] = dose: 100.0 mg/kg/injection, schedule: Q01DX009 (ip), vehicle: saline
[17] = dose: 200.0 mg/kg/injection, schedule: Q01DX009 (ip), vehicle: saline
[18] = dose: 400.0 mg/kg/injection, schedule: Q01DX009 (ip), vehicle: saline
[19] = dose: 100.0 mg/kg/injection, schedule: Q04DX003 (ip), vehicle: saline
[20] = dose: 400.0 mg/kg/injection, schedule: Q01DX001 (ip), vehicle: carboxymethylcellulose (CMC)
[21] = dose: 100.0 mg/kg/injection, schedule: Q01DX001 (ip), vehicle: saline
[22] = dose: 200.0 mg/kg/injection, schedule: Q01DX001 (ip), vehicle: saline
[23] = dose: 400.0 mg/kg/injection, schedule: Q01DX001 (ip), vehicle: saline

Measured: T/C

Nc1ncnc(N)n1
inactive: dose: 50.0 mg/kg/injection, schedule: Q01DX001 (ip), vehicle: carboxymethylcellulose (CMC) 98 % of control | [1] 101 % of control | [2] 101 % of control

CCOC(=O)CCCN(c1sc(C)c(-c2ccccc2)c1C(=O)OCC)S(=O)(=O)c1ccc(C)cc1
inactive: [3] 93 % of control | [4] 93 % of control | [5] 98 % of control | [6] 104 % of control | [7] 90 % of control | [8] 97 % of control | [9] 90 % of control | [10] 87 % of control

Clc1ccc(/C=N/N=C(N/N=C/c2ccc(Cl)cc2Cl)N/N=C/c2ccc(Cl)cc2Cl)c(Cl)c1
inactive: dose: 15.0 mg/kg/injection, schedule: Q01DX Z (ip), vehicle: carboxymethylcellulose (CMC) 88 % of control | dose: 30.0 mg/kg/injection, schedule: Q01DX Z (ip), vehicle: carboxymethylcellulose (CMC) 93 % of control | dose: 60.0 mg/kg/injection, schedule: Q01DX Z (ip), vehicle: carboxymethylcellulose (CMC) 95 % of control and 88 % of control | dose: 120.0 mg/kg/injection, schedule: Q01DX Z (ip), vehicle: carboxymethylcellulose (CMC) 87 % of control and 88 % of control | dose: 240.0 mg/kg/injection, schedule: Q01DX Z (ip), vehicle: carboxymethylcellulose (CMC) 93 % of control | dose: 240.0 mg/kg/injection, schedule: Q01DX Z (oral), vehicle: carboxymethylcellulose (CMC) 102 % of control | dose: 480.0 mg/kg/injection, schedule: Q01DX Z (ip), vehicle: carboxymethylcellulose (CMC) 87 % of control | dose: 480.0 mg/kg/injection, schedule: Q01DX Z (oral), vehicle: carboxymethylcellulose (CMC) 104 % of control | dose: 960.0 mg/kg/injection, schedule: Q01DX Z (oral), vehicle: carboxymethylcellulose (CMC) 105 % of control | dose: 1920.0 mg/kg/injection, schedule: Q01DX Z (oral), vehicle: carboxymethylcellulose (CMC) 102 % of control

CC(=O)OC(OC(C)=O)c1ccccc1
inactive: [11] 106 % of control | dose: 200.0 mg/kg/injection, schedule: Q04DX002 (ip), vehicle: Klucel (hydroxypropylcellulose) (HPC) 110 % of control | dose: 400.0 mg/kg/injection, schedule: Q04DX002 (ip), vehicle: Klucel (hydroxypropylcellulose) (HPC) 103 % of control

O=C(N/N=C/c1ccc2c(c1)CCC2)c1cccs1
inactive: [12] 97 % of control | [13] 103 % of control | [14] 107 % of control

CCOC(=O)/C(O)=C\c1nnccc1Cl
inactive: dose: 56.25 mg/kg/injection, schedule: Q04DX002 (ip), vehicle: saline 96 % of control | dose: 112.5 mg/kg/injection, schedule: Q04DX002 (ip), vehicle: saline 104 % of control | dose: 225.0 mg/kg/injection, schedule: Q04DX002 (ip), vehicle: saline 101 % of control

C(=N\Nc1nn[nH]n1)/c1ccncc1
inactive: [15] 98 % of control | [6] 95 % of control | dose: 132.0 mg/kg/injection, schedule: Q01DX009 (ip), vehicle: saline with Tween-80 102 % of control | [8] 96 % of control | dose: 300.0 mg/kg/injection, schedule: Q01DX009 (ip), vehicle: saline with Tween-80 97 % of control | [9] 100 % of control | [10] 90 % of control

NC(=S)N/N=C/c1ccc(Cl)cc1
inactive: dose: 25.0 mg/kg/injection, schedule: Q01DX009 (ip), vehicle: Klucel (hydroxypropylcellulose) (HPC) 103 % of control | dose: 50.0 mg/kg/injection, schedule: Q01DX009 (ip), vehicle: Klucel (hydroxypropylcellulose) (HPC) 101 % of control

c1ccc(CN2CCN(Cc3ccccc3)C2c2ccccc2)cc1
inactive: [3] 97 % of control | [4] 103 % of control | [15] 106 % of control | [7] 105 % of control | [9] 106 % of control

Cc1ccc(NCC(=O)NN)cc1F
inactive: dose: 25.0 mg/kg/injection, schedule: Q04DX002 (ip), vehicle: Klucel (hydroxypropylcellulose) (HPC) 102 % of control | dose: 50.0 mg/kg/injection, schedule: Q04DX002 (ip), vehicle: Klucel (hydroxypropylcellulose) (HPC) 109 % of control | [11] 109 % of control and 112 % of control

COc1ccc(COC(=O)Nc2cc(C(F)(F)F)ccc2Cl)cc1
inactive: [16] 100 % of control | [17] 107 % of control | [18] 105 % of control

C[N+](C)(CCOC(=O)C1C2CC3OC(=O)C1C3C2)Cc1ccccc1 (configuration not stated)
inactive: [19] 101 % of control

CCCCN(C)/N=N/c1nc[nH]c1C(=O)OCC
inactive: [1] 96 % of control | [2] 109 % of control | [20] 124 % of control

CCOC(=O)CNC(=O)Oc1cc(C)cc(C)c1C
inactive: [15] 98 % of control | [7] 100 % of control | [9] 98 % of control

CCOC(=O)C(Cc1csc2ccccc12)(NC(C)=O)C(=O)OCC
inactive: dose: 44.4 mg/kg/injection, schedule: Q01DX001 (ip), vehicle: carboxymethylcellulose (CMC) 93 % of control and 94 % of control | dose: 66.7 mg/kg/injection, schedule: Q01DX001 (ip), vehicle: carboxymethylcellulose (CMC) 93 % of control and 94 % of control | [1] 94 % of control and 98 % of control | dose: 150.0 mg/kg/injection, schedule: Q01DX001 (ip), vehicle: carboxymethylcellulose (CMC) 101 % of control and 91 % of control

CC(=O)NC(=O)Nc1ccccc1
inactive: [12] 94 % of control | [13] 103 % of control | [14] 95 % of control

O=[N+]([O-])c1cc(Cl)ccc1S(=O)(=O)/C=C/c1ccccc1
inactive: [21] 104 % of control | [16] 94 % of control | [22] 104 % of control | [17] 96 % of control | [23] 100 % of control | [18] 91 % of control

CC(=O)OCCN1CCN(CCOC(C)=O)CC1
inactive: [21] 96 % of control | [22] 102 % of control | [23] 94 % of control

CN(C)c1ccc(C(/C=N\O)(c2ccc(N(C)C)cc2)c2ccc(N(C)C)cc2)cc1
inactive: dose: 100.0 mg/kg/injection, schedule: Q01DX009 (ip), vehicle: Klucel (hydroxypropylcellulose) (HPC) 101 % of control | [12] 90 % of control | dose: 200.0 mg/kg/injection, schedule: Q01DX009 (ip), vehicle: Klucel (hydroxypropylcellulose) (HPC) 96 % of control | [13] 95 % of control | dose: 400.0 mg/kg/injection, schedule: Q01DX009 (ip), vehicle: Klucel (hydroxypropylcellulose) (HPC) 101 % of control | [14] 93 % of control

O=S(=O)(CC12CC1(O)C1CCC2C1)c1ccccc1 (configuration not stated)
inactive: dose: 25.0 mg/kg/injection, schedule: Q01DX009 (ip), vehicle: saline 104 % of control | dose: 50.0 mg/kg/injection, schedule: Q01DX009 (ip), vehicle: saline 104 % of control | [21] 108 % of control | [16] 93 % of control | [19] 103 % of control | [22] 103 % of control | dose: 200.0 mg/kg/injection, schedule: Q04DX003 (ip), vehicle: saline 100 % of control | [23] 107 % of control

COC(=O)C(CC(C)C)NC(=O)C(N)Cc1ccc(OCc2ccccc2)cc1 (configuration not stated) (H-Tyr(Bn)-Leu-OMe; configuration not given here)
inactive: dose: 6.25 mg/kg/injection, schedule: Q01DX009 (ip), vehicle: saline with Tween-80 111 % of control | dose: 12.5 mg/kg/injection, schedule: Q01DX009 (ip), vehicle: saline with Tween-80 111 % of control | [3] 106 % of control and 90 % of control | dose: 25.0 mg/kg/injection, schedule: Q04DX003 (ip), vehicle: saline with Tween-80 98 % of control | [5] 104 % of control | [6] 96 % of control and 102 % of control

CC(=O)Nc1ccc(-n2cnc3c(Cl)ncnc32)cc1C
inactive: [1] 87 % of control | [2] 91 % of control | [20] 91 % of control

CCOC(=O)CCC(=O)C(=O)OCC
inactive: [21] 92 % of control | [22] 102 % of control | [23] 92 % of control

Cn1nc(C(=O)O)c(=O)[nH]c1=O
inactive: dose: 100.0 mg/kg/injection, schedule: Q01DX Z (ip), vehicle: methylcellulose (MC) 97 % of control

O=C(NC(NC(=O)c1ccc(Cl)cc1)C(Cl)(Cl)Cl)c1ccc(Cl)cc1
inactive: [3] 100 % of control | [4] 93 % of control | [15] 92 % of control | [6] 92 % of control

Cc1ccc(NC(=O)Nc2c(C)cccc2C)cc1
inactive: [1] 95 % of control | [2] 95 % of control | [20] 103 % of control
